Test results reported in ChEMBL document CHEMBL1127295, “Development of a model for the delta opioid receptor pharmacophore. 2. Conformationally restricted Phe3 replacements in the cyclic delta receptor selective tetrapeptide Tyr-c[D-Cys-Phe-D-Pen]OH (JOM-13)” (J Med Chem, 1994).

Tests used:
[1] = molecular target: T1, Delta-type opioid receptor (Mus musculus, UniProt P32300); assay: Agonist activity was assessed in mouse vas deferens (MVD) smooth muscle bioassay; format: functional, tissue-based, Muscle tissue
T1 sequence (P32300 whole entry): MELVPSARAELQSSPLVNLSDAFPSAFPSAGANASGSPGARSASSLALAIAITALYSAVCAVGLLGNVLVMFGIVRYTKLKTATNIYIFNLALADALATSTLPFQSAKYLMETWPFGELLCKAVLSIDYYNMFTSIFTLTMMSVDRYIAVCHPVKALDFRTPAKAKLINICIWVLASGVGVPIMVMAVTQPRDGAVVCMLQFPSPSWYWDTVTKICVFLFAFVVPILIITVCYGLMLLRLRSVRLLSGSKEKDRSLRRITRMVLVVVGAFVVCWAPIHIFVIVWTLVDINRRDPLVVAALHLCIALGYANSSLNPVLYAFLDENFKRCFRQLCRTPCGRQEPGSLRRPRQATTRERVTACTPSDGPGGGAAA

[2] = molecular target: T1, Delta-type opioid receptor; assay: Binding affinity for delta opioid receptor using [3H]DPDPE from mouse vas deferens
Mu-type opioid receptor [3] = molecular target: T2, Mu-type opioid receptor (Cavia porcellus, UniProt P97266); assay: Binding affinity against mu opioid receptor using [3H]DAMGO in guinea pig ileum; format: tissue-based
T2 sequence (P97266 whole entry): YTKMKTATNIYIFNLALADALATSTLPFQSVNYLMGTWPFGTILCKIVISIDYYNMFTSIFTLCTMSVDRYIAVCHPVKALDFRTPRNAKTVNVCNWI

Mu-type opioid receptor [4] = molecular target: T2, Mu-type opioid receptor; assay: Agonist activity was assessed in an guinea pig ileum (GPI) smooth muscle bioassay; format: functional, tissue-based

Row | SMILES | IC50 [1] [nM] | Ki [2] [nM] | Ki (Mu-type opioid receptor [3]) [nM] | IC50 (Mu-type opioid receptor [4]) [nM]
1 | CC1(C)SSC[C@H](NC(=O)[C@@H](N)Cc2ccc(O)cc2)C(=O)N[C@H](Cc2ccccc2)C(=O)N[C@@H]1C(=O)O (stereo in doubt; 4) | 9.72 | 4.8 |  | 
2 | CC1(C)SSC[C@H](NC(=O)[C@@H](N)Cc2ccc(O)cc2)C(=O)N[C@H](Cc2ccccc2)C(=O)N[C@@H]1C(=O)O (stereo in doubt; 6) |  | 70 |  | 
3 | C[C@@H](c1ccccc1)[C@H]1NC(=O)[C@@H](NC(=O)[C@@H](N)Cc2ccc(O)cc2)CSSC(C)(C)[C@@H](C(=O)O)NC1=O | 1110 | 237 | > 10000 | > 30000
4 | CC1(C)SSC[C@H](NC(=O)[C@@H](N)Cc2ccc(O)cc2)C(=O)N[C@H](Cc2ccccc2)C(=O)N[C@@H]1C(=O)O (stereo in doubt; 3) | 51.8 | 12.3 |  | 
5 | CC1(C)SSC[C@H](NC(=O)[C@@H](N)Cc2ccc(O)cc2)C(=O)N[C@H](Cc2ccccc2)C(=O)N[C@@H]1C(=O)O (stereo in doubt; 5) | 4.13 | 1.52 |  | 
